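Cultured in 96-well plates, cells were exposed to test compound for 48 hours across five concentrations. GI50 marks 50% less growth.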 The source made the active and inactive calls. Cut-off read from the data, not from the text of the source: active = GI50 up to about 1.1 µM and inactive = higher.

Among the test systems are SF-268; EKVX; HCT-15; NCI-H522; UACC-62; HL-60; RXF 393; SK-MEL-2; SW-620; HCT-116; BT-549; SK-MEL-5; DU-145; CCRF-CEM; SF-539; HT-29; IGROV-1; CAKI-1; OVCAR-8; SF-295.
Common to all, as to assay: growth of human tumour cells (NCI), 48 h

Take `COc1ccc(C(CC2(c3ccc(OC)cc3)SCCCS2)NC(C)=O)cc1` (centres undefined): the GI50 was 87.3 µM (inactive) in the test with SF-268; 52.8 µM (inactive) in the test on EKVX; 37 µM with HCT-15; 29.2 µM (inactive) in the test with NCI-H522; > 100 µM (inactive) in the test on UACC-62; 18.7 µM (inactive) in the test with HL-60. Further, the GI50 was 67.9 µM (inactive) in the test with RXF 393; 41.3 µM (inactive) in the test with SK-MEL-2; 47.8 µM (inactive) in the test with SW-620; 56.1 µM (inactive) with HCT-116; 41.9 µM (inactive) in the test with BT-549; 18.4 µM (inactive) with SK-MEL-5. The GI50 was 44.6 µM (inactive) in the test with DU-145; 21.9 µM (inactive) in the test with CCRF-CEM; > 100 µM (inactive) with SF-539; 65.2 µM (inactive) in the test with HT-29; > 100 µM (inactive) with IGROV-1; 72.3 µM (inactive) in the test with CAKI-1. The GI50 was 42.3 µM (inactive) with OVCAR-8 and 33.8 µM (inactive) in the test on SF-295.
Regarding `Cc1ccc(NC(=O)c2cc(S(=O)(=O)Nc3nc4cccnc4[nH]3)c(SSc3cc(Cl)c(C(=O)Nc4ccc(C)cc4)cc3S(=O)(=O)Nc3nc4cccnc4[nH]3)cc2Cl)cc1`, the GI50 with SF-268 is > 100 µM (inactive); in the test with EKVX it was > 100 µM (inactive); in the test with HCT-15, > 100 µM; in the test with NCI-H522, > 100 µM (inactive); with UACC-62 it was > 100 µM (inactive); with HL-60 it was > 100 µM (inactive). The GI50 in the test on RXF 393, with SK-MEL-2, in the test on SW-620, in the test with HCT-116, with BT-549 and in the test with SK-MEL-5 was > 100 µM (inactive) in each case. The GI50 in the test with DU-145, in the test with CCRF-CEM, in the test with SF-539, with HT-29, in the test on IGROV-1 and with CAKI-1 was > 100 µM (inactive) each time. Moreover, the GI50 in the test with OVCAR-8 and with SF-295 was > 100 µM (inactive) each time.
Consider `N#Cc1nc(COCCOCc2ccccc2)oc1N`, for which the GI50 in the test on SF-268 is > 100 µM (inactive); with EKVX, > 100 µM (inactive); with HCT-15 it was > 100 µM; with NCI-H522, 23 µM (inactive); in the test on UACC-62 it was > 100 µM (inactive); with HL-60, > 100 µM (inactive). Moreover, the GI50 in the test on RXF 393 was > 100 µM (inactive); with SK-MEL-2 it was > 100 µM (inactive); in the test with SW-620, > 100 µM (inactive); in the test with HCT-116, > 100 µM (inactive); in the test on BT-549 it was 88.9 µM (inactive); in the test on SK-MEL-5 it was > 100 µM (inactive). For the same molecule, the GI50 in the test on DU-145 was > 100 µM (inactive); with CCRF-CEM it was 30 µM (inactive); with SF-539, > 100 µM (inactive); in the test with HT-29 it was > 100 µM (inactive); with IGROV-1, > 100 µM (inactive); with CAKI-1 it was > 100 µM (inactive). Besides, the GI50 in the test on OVCAR-8 and in the test with SF-295 was > 100 µM (inactive) in each case.
Consider `COC(=O)c1cc2c3c(c1)Oc1cc(C(=O)OC)cc4c1C3c1c(cc(C(=O)OC)cc1O4)O2`, for which the GI50 in the test with SF-268 was 9.18 µM (inactive); with EKVX, 16.4 µM (inactive); in the test with HCT-15 it was > 32 µM; with NCI-H522, 3.19 µM (inactive); in the test on UACC-62, 16.9 µM (inactive); in the test with HL-60, 3.03 µM (inactive). The GI50 with RXF 393 was 0.406 µM (active); with SK-MEL-2, 36.6 µM (inactive); in the test with SW-620, 35 µM (inactive); in the test with HCT-116 it was 18.6 µM (inactive); in the test on BT-549, 20.5 µM (inactive); in the test with SK-MEL-5 it was 2.92 µM (inactive). Besides, the GI50 in the test on DU-145 was 5.14 µM (inactive); with CCRF-CEM it was 11.4 µM (inactive); in the test on SF-539 it was 15.1 µM (inactive); with HT-29, 0.802 µM (active); with IGROV-1 it was 11.9 µM (inactive); with CAKI-1, 14 µM (inactive). The GI50 with SF-295 is 10.6 µM (inactive).
Take `CCCCCCCCNC(=O)C1=C(C)NC(C)=C(C(=O)NCCCCCCCC)C1`: the GI50 in the test on SF-268 was > 100 µM (inactive); in the test with EKVX, > 100 µM (inactive); with HCT-15, > 100 µM; with NCI-H522, > 100 µM (inactive); in the test on UACC-62 it was > 100 µM (inactive); in the test with HL-60, > 100 µM (inactive). The GI50 with RXF 393, in the test on SK-MEL-2, with SW-620, in the test with HCT-116, in the test on BT-549 and in the test on SK-MEL-5 was > 100 µM (inactive) each time. Besides, the GI50 with DU-145 is > 100 µM (inactive); in the test with CCRF-CEM it was 39.6 µM (inactive); with SF-539, > 100 µM (inactive); in the test with HT-29, 82.8 µM (inactive); in the test with IGROV-1, > 100 µM (inactive); in the test with CAKI-1 it was > 100 µM (inactive). In addition, the GI50 with OVCAR-8 and with SF-295 was > 100 µM (inactive) throughout.
Regarding `c1ccc2c(c1)CN1CCCC1CN2` (centres undefined), the GI50 in the test on SF-268 was > 100 µM (inactive); in the test with EKVX, > 100 µM (inactive); with HCT-15, > 100 µM; in the test on NCI-H522, > 100 µM (inactive); with UACC-62, > 100 µM (inactive); in the test with HL-60, > 100 µM (inactive). The GI50 in the test on RXF 393, with SK-MEL-2, with SW-620, in the test with HCT-116, with BT-549 and in the test with SK-MEL-5 was > 100 µM (inactive) throughout. Also, the GI50 in the test with DU-145, in the test with CCRF-CEM, with SF-539, with HT-29, in the test with IGROV-1 and in the test on CAKI-1 was > 100 µM (inactive) each time. Further, the GI50 in the test on OVCAR-8 and with SF-295 was > 100 µM (inactive) each time.
Take `NC(Cc1ccccc1)c1nn[nH]n1` (centres undefined): the GI50 in the test with SF-268 is > 100 µM (inactive); in the test with EKVX, > 100 µM (inactive); in the test with HCT-15 it was > 100 µM; with NCI-H522, > 100 µM (inactive); with UACC-62, > 100 µM (inactive); in the test with HL-60 it was > 100 µM (inactive). Moreover, the GI50 with RXF 393, in the test with SK-MEL-2, with SW-620, in the test on HCT-116, in the test with BT-549 and in the test on SK-MEL-5 was > 100 µM (inactive) each time. In addition, the GI50 in the test on DU-145, in the test with CCRF-CEM, with SF-539, in the test on HT-29, in the test with IGROV-1 and in the test with CAKI-1 was > 100 µM (inactive) throughout. In addition, the GI50 in the test on OVCAR-8 and in the test on SF-295 was > 100 µM (inactive) in each case.

The values are drawn from ChEMBL document CHEMBL1201862, “PubChem BioAssay data set” (2004).
